Experimental data taken from publication PMC4728508 (Marine Drugs, 2016).

Assays:
[1] = system: Kunming mice; conditions: mouse, in vivo, sc
[2] = biological target: rat α3β2 nAChR (Rattus norvegicus, UniProt P04757+P12390); assay type: cell-based
[3] = biological target: human α3β2 nAChR (Homo sapiens, UniProt P17787+P32297); assay type: cell-based
Sequence of human α3β2 nAChR (P32297 32-505 limits assumed): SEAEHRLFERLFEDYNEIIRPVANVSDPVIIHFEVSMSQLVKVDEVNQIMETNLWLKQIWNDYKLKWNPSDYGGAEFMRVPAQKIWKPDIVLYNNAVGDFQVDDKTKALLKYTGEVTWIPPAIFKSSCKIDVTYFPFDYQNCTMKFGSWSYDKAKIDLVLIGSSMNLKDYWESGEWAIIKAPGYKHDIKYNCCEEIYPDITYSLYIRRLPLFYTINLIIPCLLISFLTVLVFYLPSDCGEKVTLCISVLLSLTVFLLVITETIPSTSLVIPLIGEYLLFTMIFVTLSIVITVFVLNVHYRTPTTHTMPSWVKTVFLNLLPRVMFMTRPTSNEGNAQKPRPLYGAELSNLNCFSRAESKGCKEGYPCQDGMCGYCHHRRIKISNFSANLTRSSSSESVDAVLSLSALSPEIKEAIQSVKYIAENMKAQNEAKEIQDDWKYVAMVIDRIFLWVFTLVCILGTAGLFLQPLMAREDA
Sequence of human α3β2 nAChR (P17787 26-502 limits assumed): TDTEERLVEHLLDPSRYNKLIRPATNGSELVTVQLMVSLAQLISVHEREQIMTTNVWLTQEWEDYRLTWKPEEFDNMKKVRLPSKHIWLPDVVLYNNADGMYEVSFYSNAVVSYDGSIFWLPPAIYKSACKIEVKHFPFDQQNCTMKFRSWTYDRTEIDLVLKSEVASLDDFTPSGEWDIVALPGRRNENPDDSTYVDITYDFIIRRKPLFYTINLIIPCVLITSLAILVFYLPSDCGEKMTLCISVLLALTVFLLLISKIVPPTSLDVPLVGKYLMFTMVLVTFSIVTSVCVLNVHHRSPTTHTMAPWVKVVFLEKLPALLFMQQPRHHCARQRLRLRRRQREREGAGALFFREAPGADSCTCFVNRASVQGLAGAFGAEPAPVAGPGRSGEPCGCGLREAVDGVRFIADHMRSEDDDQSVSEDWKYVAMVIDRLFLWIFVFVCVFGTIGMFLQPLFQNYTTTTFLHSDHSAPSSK

Sequence of rat α3β2 nAChR (P04757 26-499 limits assumed): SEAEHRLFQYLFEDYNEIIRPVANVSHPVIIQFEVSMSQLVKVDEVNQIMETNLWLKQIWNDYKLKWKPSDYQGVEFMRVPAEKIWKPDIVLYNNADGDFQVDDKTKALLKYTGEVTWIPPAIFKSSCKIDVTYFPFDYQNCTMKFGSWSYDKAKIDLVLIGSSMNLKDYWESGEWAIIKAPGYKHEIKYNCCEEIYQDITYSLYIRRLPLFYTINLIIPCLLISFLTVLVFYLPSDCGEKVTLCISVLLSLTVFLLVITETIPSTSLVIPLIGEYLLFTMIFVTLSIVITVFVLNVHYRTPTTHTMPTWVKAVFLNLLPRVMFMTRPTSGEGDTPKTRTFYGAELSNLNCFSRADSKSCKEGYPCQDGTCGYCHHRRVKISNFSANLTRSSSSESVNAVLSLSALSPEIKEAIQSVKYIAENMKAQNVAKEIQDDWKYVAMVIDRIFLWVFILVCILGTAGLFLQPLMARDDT
Sequence of rat α3β2 nAChR (P12390 25-500 limits assumed): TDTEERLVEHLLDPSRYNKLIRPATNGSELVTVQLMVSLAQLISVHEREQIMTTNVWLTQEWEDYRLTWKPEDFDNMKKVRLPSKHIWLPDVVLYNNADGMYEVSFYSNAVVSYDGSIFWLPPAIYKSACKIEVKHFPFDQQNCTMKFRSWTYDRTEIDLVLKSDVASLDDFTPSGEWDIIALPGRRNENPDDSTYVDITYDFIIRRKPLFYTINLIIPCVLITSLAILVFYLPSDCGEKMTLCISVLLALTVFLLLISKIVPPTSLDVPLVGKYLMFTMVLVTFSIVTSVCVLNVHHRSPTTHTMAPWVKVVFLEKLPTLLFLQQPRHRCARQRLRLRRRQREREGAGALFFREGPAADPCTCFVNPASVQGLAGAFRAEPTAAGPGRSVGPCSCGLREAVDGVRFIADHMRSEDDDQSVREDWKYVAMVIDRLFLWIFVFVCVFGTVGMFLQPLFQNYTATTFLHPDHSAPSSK

SMILES | latency to thermal stimulus [1] | loss of potency versus native LvIA [2] [fold] | loss of potency versus native LvIA [3] [fold]
CN1CC[C@]23c4c5ccc(O)c4O[C@H]2[C@@H](O)C=C[C@H]3[C@H]1C5 [Morphine] | highest latency |  | 
CC[C@H](C)[C@@H]1NC(=O)[C@H](CCC(=O)O)NC(=O)[C@@H]2CCCN2C(=O)[C@H](Cc2c[nH]cn2)NC(=O)[C@H](CC(=O)O)NC(=O)[C@H](C(C)C)NC(=O)[C@H](CC(N)=O)NC(=O)[C@@H]2CSSC[C@H](NC(=O)CNC(=O)[C@@H](N)CCSC)C(=O)N[C@@H](CSSC[C@@H](C(=O)O)NC1=O)C(=O)N[C@@H](CO)C(=O)N[C@@H](Cc1c[nH]cn1)C(=O)N1CCC[C@H]1C(=O)N[C@@H](C)C(=O)N2 [rLvIA] |  | 18.5 | 2.7
